Measurements as given in paper PMC9847679, “The anti-breast cancer stem cell properties of gold(I)-non-steroidal anti-inflammatory drug complexes” (Chemical Science, 2022).

Key:
HMLER-shEcad cells = assay: Intracellular ROS assay (DCFH-DA, flow cytometry); type: cell-based, human; settings: 0.4 μM
Method: (§1) media. The final concentration of DMSO in each well was ≤1 %. After 72 h, 20 μl of MTT (4 mg mL-1 in PBS) was added to each well and the plates incubated for an additional 4 h at 37 °C. The media/MTT mixture was eliminated and DMSO (100 μl per well) was added to dissolve the formazan precipitates. The optical density was measured at 550 nm using a 96-well multiscanner autoreader. Absorbance values were normalised to (DMSO-containing) control wells and plotted as concentration of test compound versus % cell viability. IC50 values were interpolated from the resulting dose dependent curves. The reported IC50 values are the average of three independent experiments (n = 18).
Tumorsphere Formation and Viability Assay. […] Mammospheres treated with 1-3, 5-fluorouracil, capecitabine, cisplatin, carboplatin, and salinomycin (at their respective IC20 values, 5 days) were counted and imaged using an inverted microscope. The viability of the mammospheres was determined by addition of a resazurin-based reagent, TOX8 (Sigma). After incubation for 16 h, the fluorescence of the solutions was read at 590 nm (λex = 560 nm). […] Fluorescence values were normalised to DMSO-containing controls and plotted as concentration of test compound versus % mammospheres viability. […]
Cellular Uptake. […] The number of cells was counted at this stage, using a haemocytometer. […] Gold levels are expressed as mass of Au (ng) per million cells. […]

HMLER cells = assay: Monolayer cytotoxicity (MTT assay), HMLER cells; type: cell-based, human; settings: 72 h incubation, MTT
Text: Cell Lines and Cell Culture Conditions. The human mammary epithelial HMLER and HMLER-shEcad cell lines were kindly donated by Prof. R. A. Weinberg (Whitehead Institute, MIT). The human epithelial breast MCF10A, breast adenocarcinoma MDA-MB-231 and MDA-MB-468, murine epithelial breast 4T1, and embryonic kidney HEK 293 cell lines were acquired from American Type Culture Collection (ATCC, Manassas, VA, USA).
HMLER, HMLER-shEcad, and MCF10A cells were maintained in Mammary Epithelial Cell Growth Medium (MEGM) with supplements and growth factors (BPE, hydrocortisone, hEGF, insulin, and gentamicin/amphotericin-B). MDA-MB-231, MDA-MB-468, 4T1, and HEK 293 cells were maintained in Dulbecco's Modified Eagle's Medium (DMEM) supplemented with fetal bovine serum (10 %) and penicillin/streptomycin (1 %). The cells were grown at 310 K in a humidified atmosphere containing 5% CO2.
Monolayer Cytotoxicity Studies. Exponentially growing cells were seeded at a density of approximately 5 × 10^3 cells per well in 96-well flat-bottomed microplates and allowed to attach for 24 h prior to addition of compounds. Various concentrations of the test compounds (0.0004-100 μM) were added and incubated for 72 h at 37 °C (total volume 200 μl). Stock solutions of the compounds were prepared as 10 mM DMSO solutions and diluted using cell […]
as §1, with “18). […]” for “18).”
After incubation for 16 […]
h, the fluorescence of the solutions was read at 590 nm (λex = 560 nm). Viable mammospheres reduce the amount of the oxidised TOX8 form (blue) and concurrently increase the amount of the fluorescent TOX8 intermediate (red), indicating the degree of mammosphere cytotoxicity caused by the test compound. […]
Cellular Uptake. To measure the cellular uptake of 1-3 about 1 million HMLER-shEcad cells were treated with 1-3 (0.25 μM) at 37 °C for 24 h. After incubation, the media was removed, the cells were washed with PBS (2 mL × 3) and harvested. The number of cells was counted at this stage, using a haemocytometer. This mitigates any cell death induced by 1-3 at the administered concentration and experimental cell loss. The cellular pellets were dissolved in 65% HNO3 (250 µL) overnight. A cellular pellet of HMLER-shEcad cells treated with 1 was also used to determine the gold content in the nuclear, cytoplasmic and membrane fractions. The Thermo Scientific NE-PER Nuclear and Cytoplasmic Extraction Kit was used to extract and separate the nuclear, cytoplasmic and membrane fractions. The fractions were dissolved in 65% HNO3 (250 µL final volume) overnight. All samples were diluted 17-fold with water and analysed using inductively coupled plasma mass spectrometry (ICP-MS, Thermo Scientific ICAP-Qc quadrupole ICP mass spectrometer). Gold levels are expressed as mass of Au (ng) per million cells. Results are presented as the mean of four determinations for each data point.
Intracellular ROS Assay. […]

COc1ccc2c(c1)c(CC(=O)[O][Au][PH](c1ccccc1)(c1ccccc1)c1ccccc1)c(C)n2C(=O)c1ccc(Cl)cc1 [complex 1]
increase in intracellular ROS levels (HMLER-shEcad cells; 6 h exposure (peak)): 104% | increase in intracellular ROS levels (HMLER-shEcad cells; prolonged (16–24 h) exposure): statistically insignificant increases in ROS levels | IC50 (HMLER cells): 190 ± 10 nM
